Our source for the IC50 values is patent US8889712B2, “IAP antagonists” (Bristol-Myers Squibb Company, priority 2012, dated 2014).

One may read the IC50 as the point on the concentration scale where inhibition reaches its midpoint.

Read-outs that look alike come from different tables or passages of the source.

One assay concerns the target T1, XIAP BIR2-3 (Homo sapiens, UniProt P98170, C202A/C213G).
T1 construct: His-BIR2-3 (125-356, C202A/C213G, XIAP)
Nature of the assay: XIAP-BIR2-3 dimeric SMAC Peptide Homogeneous Time Resolved Fluorescence (HTRF) Assay. The assay is classed as binding. The protocol:
B. […] Assays were performed in black, flat-bottom, 384-well plates. […] Compounds were dissolved at 3 mM in dimethylsulfoxide (DMSO) and evaluated at eleven serially diluted concentrations. IC50 and Ki values were derived by non-linear regression analysis.
In general terms: Time-resolved FRET reads energy transfer from a long-lived donor to a nearby acceptor.

The next assay concerns the target T2, XIAP BIR3 (Homo sapiens, UniProt P98170).
T2 construct: His-BIR3 (241-356, XIAP)
Nature of the assay: XIAP-BIR3/SMAC Homogeneous Time Resolved Fluorescence (HTRF) Assay. The assay is classed as binding. The essentials:
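Competition HTRF between XIAP-BIR3 and SMAC; reaction 60 min at room temperature, then anti-6×His-terbium Fab detection for a further 30 min.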

[1] abbreviates: 0.5 nM N-His-BIR2-3 (125-356, C202A/C213G, XIAP), 20 nM fluorescein labeled dimeric SMAC peptide, HTRF signal, read-out: XIAP BIR2-3 IC50.
The mark [2] stands for this setting: 1 nM N-His-BIR3 (241-356, XIAP), 5 nM fluorescein labeled SMAC peptide, HTRF signal, read-out: XIAP BIR3 IC50.

T1 sequence (P98170 125-356 C202A/C213G): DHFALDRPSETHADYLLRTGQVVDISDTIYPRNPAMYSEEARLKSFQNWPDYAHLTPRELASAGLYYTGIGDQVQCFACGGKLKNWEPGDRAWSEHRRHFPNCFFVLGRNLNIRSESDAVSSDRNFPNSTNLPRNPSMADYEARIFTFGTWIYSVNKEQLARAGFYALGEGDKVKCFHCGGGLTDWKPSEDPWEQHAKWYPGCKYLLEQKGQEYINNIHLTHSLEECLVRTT
T2 sequence (P98170 241-356): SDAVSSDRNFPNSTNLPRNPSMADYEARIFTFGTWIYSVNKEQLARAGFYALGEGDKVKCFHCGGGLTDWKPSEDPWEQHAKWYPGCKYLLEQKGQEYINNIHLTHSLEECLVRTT

Regarding `CN[C@@H](C)C(=O)N[C@H](C(=O)N1Cc2cc([C@H]3C[C@@H](C(=O)N[C@@H]4CCCc5ccccc54)N(C(=O)[C@@H](NC(=O)[C@H](C)NC)C(C)(C)C)C3)ccc2C[C@H]1C(=O)N[C@@H](Cc1ccccc1)c1noc(C)n1)C(C)(C)C` [Example 45, (S)-2-((S)-3,3-Dimethyl-2-((S)-2-(methylamino)propanamido)butanoyl)-7-((3R,5S)-1-((S)-3,3-dimethyl-2-((S)-2-(methylamino)propanamido)butanoyl)-5-(((R)-1,2,3,4-tetrahydronaphthalen-1-yl)carbamoyl)pyrrolidin-3-yl)-N—((S)-1-(5-methyl-1,2,4-oxadiazol-3-yl)-2-phenylethyl)-1,2,3,4-tetrahydroisoquinoline-3-carboxamide], the IC50 was 4.2 nM at XIAP BIR2-3 (setting [1]) and 9.2 nM at XIAP BIR3 (setting [2]).

For the molecule `CN[C@@H](C)C(=O)N[C@H](C(=O)N1C[C@@H](c2ccc3c(c2)CN(C(=O)[C@@H](NC(=O)[C@H](C)NC)C(C)(C)C)[C@H](C(=O)N[C@@H]2CCCc4ccccc42)C3)C[C@H]1C(=O)N[C@@H](Cc1ccccc1)C(N)=O)C(C)(C)C` [Example 46, (S)-7-((3R,5S)-5-(((S)-1-Amino-1-oxo-3-phenylpropan-2-yl)carbamoyl)-1-((S)-3,3-dimethyl-2-((S)-2-(methylamino)propanamido)butanoyl)pyrrolidin-3-yl)-2-((S)-3,3-dimethyl-2-((S)-2-(methylamino)propanamido)butanoyl)-N—((R)-1,2,3,4-tetrahydronaphthalen-1-yl)-1,2,3,4-tetrahydroisoquinoline-3-carboxamide], the IC50 worked out at 1.6 nM at XIAP BIR2-3 (setting [1]) and 10.2 nM at XIAP BIR3 (setting [2]).

As to `CN[C@@H](C)C(=O)N[C@H](C(=O)N1C[C@@H](c2ccc3c(c2)CN(C(=O)[C@@H](NC(=O)[C@H](C)NC)C(C)(C)C)[C@H](C(=O)N[C@@H]2CCCc4ccccc42)C3)C[C@H]1C(=O)N[C@@H](Cc1ccccc1)C(=O)N1CCOCC1)C(C)(C)C` [Example 47, (S)-2-((S)-3,3-Dimethyl-2-((S)-2-(methylamino)propanamido)butanoyl)-7-((3R,5S)-1-((S)-3,3-dimethyl-2-((S)-2-(methylamino)propanamido)butanoyl)-5-(((S)-1-morpholino-1-oxo-3-phenylpropan-2-yl)carbamoyl)pyrrolidin-3-yl)-N-((R)-1,2,3,4-tetrahydronaphthalen-1-yl)-1,2,3,4-tetrahydroisoquinoline-3-carboxamide], the IC50 on XIAP BIR2-3 (setting [1]) stood at 2.4 nM; at XIAP BIR3 (setting [2]), 17.5 nM.

For the molecule `CN[C@@H](C)C(=O)N[C@H](C(=O)N1C[C@@H](c2ccc3c(c2)CN(C(=O)[C@@H](NC(=O)[C@H](C)NC)C(C)(C)C)[C@H](C(=O)N[C@@H]2CCCc4ccccc42)C3)C[C@H]1C(=O)N[C@@H](Cc1ccccc1)C(=O)NS(=O)(=O)c1ccccc1)C(C)(C)C` [Example 48, (S)-2-((S)-3,3-Dimethyl-2-((S)-2-(methylamino)propanamido)butanoyl)-7-((3R,5S)-1-((S)-3,3-dimethyl-2-((S)-2-(methylamino)propanamido)butanoyl)-5-(((S)-1-oxo-3-phenyl-1-(phenylsulfonamido)propan-2-yl)carbamoyl)pyrrolidin-3-yl)-N-((R)-1,2,3,4-tetrahydronaphthalen-1-yl)-1,2,3,4-tetrahydroisoquinoline-3-carboxamide], the figures for the IC50 on XIAP BIR2-3 and on XIAP BIR3 were 0.7 nM and 0.8 nM, respectively.

For the molecule `CN[C@@H](C)C(=O)N[C@H](C(=O)N1C[C@@H](c2ccc3c(c2)CN(C(=O)[C@@H](NC(=O)[C@H](C)NC)C(C)(C)C)[C@H](C(=O)N[C@@H]2CCCc4ccccc42)C3)C[C@H]1C(=O)N[C@@H](Cc1ccccc1)C(=O)NS(=O)(=O)c1ccc2ccccc2c1)C(C)(C)C` [Example 49, (S)-2-((S)-3,3-Dimethyl-2-((S)-2-(methylamino)propanamido)butanoyl)-7-((3R,5S)-1-((S)-3,3-dimethyl-2-((S)-2-(methylamino)propanamido)butanoyl)-5-(((S)-1-(naphthalene-2-sulfonamido)-1-oxo-3-phenylpropan-2-yl)carbamoyl)pyrrolidin-3-yl)-N-((R)-1,2,3,4-tetrahydronaphthalen-1-yl)-1,2,3,4-tetrahydroisoquinoline-3-carboxamide], the 50% inhibitory concentration (IC50) worked out at 0.5 nM on XIAP BIR2-3 (setting [1]) and 0.4 nM at XIAP BIR3 (setting [2]).

On to `CN[C@@H](C)C(=O)N[C@H](C(=O)N1C[C@@H](c2ccc3c(c2)CN(C(=O)[C@@H](NC(=O)[C@H](C)NC)C(C)(C)C)[C@H](C(=O)N[C@@H]2CCCc4ccccc42)C3)C[C@H]1C(=O)N[C@@H](Cc1ccccc1)C(=O)NS(=O)(=O)C1CC1)C(C)(C)C` [Example 50, (S)-7-((3R,5S)-5-(((S)-1-(Cyclopropanesulfonamido)-1-oxo-3-phenylpropan-2-yl)carbamoyl)-1-((S)-3,3-dimethyl-2-((S)-2-(methylamino)propanamido)butanoyl)pyrrolidin-3-yl)-2-((S)-3,3-dimethyl-2-((S)-2-(methylamino)propanamido)butanoyl)-N-((R)-1,2,3,4-tetrahydronaphthalen-1-yl)-1,2,3,4-tetrahydroisoquinoline-3-carboxamide], for which the IC50 turned out to be 1.2 nM at XIAP BIR2-3 (setting [1]) and 0.9 nM on XIAP BIR3 (setting [2]).

With `CCNC(=O)[C@H](Cc1ccccc1)NC(=O)[C@@H]1C[C@H](c2ccc3c(c2)CN(C(=O)[C@@H](NC(=O)[C@H](C)NC)C(C)(C)C)[C@H](C(=O)N[C@@H]2CCCc4ccccc42)C3)CN1C(=O)[C@@H](NC(=O)[C@H](C)NC)C(C)(C)C` [Example 51, (S)-2-((S)-3,3-Dimethyl-2-((S)-2-(methylamino)propanamido)butanoyl)-7-((3R,5S)-1-((S)-3,3-dimethyl-2-((S)-2-(methylamino)propanamido)butanoyl)-5-(((S)-1-(ethylamino)-1-oxo-3-phenylpropan-2-yl)carbamoyl)pyrrolidin-3-yl)-N-((R)-1,2,3,4-tetrahydronaphthalen-1-yl)-1,2,3,4-tetrahydroisoquinoline-3-carboxamide], the IC50 on XIAP BIR2-3 (setting [1]) was determined as 9.6 nM; on XIAP BIR3 (setting [2]) it was 19.4 nM.

Consider `CN[C@@H](C)C(=O)N[C@H](C(=O)N1C[C@@H](c2ccc3c(c2)CN(C(=O)[C@@H](NC(=O)[C@H](C)NC)C(C)(C)C)[C@H](C(=O)N[C@@H]2CCCc4ccccc42)C3)C[C@H]1C(=O)N[C@@H](Cc1ccccc1)C(=O)Nc1nncs1)C(C)(C)C` [Example 52, (S)-7-((3R,5S)-5-(((S)-1-((1,3,4-Thiadiazol-2-yl)amino)-1-oxo-3-phenylpropan-2-yl)carbamoyl)-1-((S)-3,3-dimethyl-2-((S)-2-(methylamino)propanamido)butanoyl)pyrrolidin-3-yl)-2-((S)-3,3-dimethyl-2-((S)-2-(methylamino)propanamido)butanoyl)-N-((R)-1,2,3,4-tetrahydronaphthalen-1-yl)-1,2,3,4-tetrahydroisoquinoline-3-carboxamide], for which the IC50 was 1.2 nM on XIAP BIR2-3 (setting [1]) and 3.4 nM at XIAP BIR3 (setting [2]).

Consider `CN[C@@H](C)C(=O)N[C@H](C(=O)N1C[C@@H](c2ccc3c(c2)CN(C(=O)[C@@H](NC(=O)[C@H](C)NC)C(C)(C)C)[C@H](C(=O)N[C@@H]2CCCc4ccccc42)C3)C[C@H]1C(=O)N[C@@H](Cc1ccccc1)C(=O)N(C)CCC(C)C)C(C)(C)C` [Example 53, (S)-2-((S)-3,3-Dimethyl-2-((S)-2-(methylamino)propanamido)butanoyl)-7-((3R,5S)-1-((S)-3,3-dimethyl-2-((S)-2-(methylamino)propanamido)butanoyl)-5-(((S)-1-(isopentyl(methyl)amino)-1-oxo-3-phenylpropan-2-yl)carbamoyl)pyrrolidin-3-yl)-N-((R)-1,2,3,4-tetrahydronaphthalen-1-yl)-1,2,3,4-tetrahydroisoquinoline-3-carboxamide], for which the IC50 at XIAP BIR2-3 (setting [1]) stood at 86.9 nM; on XIAP BIR3 (setting [2]), 53.9 nM.

As for `CN[C@@H](C)C(=O)N[C@H](C(=O)N1C[C@@H](c2ccc3c(c2)CN(C(=O)[C@@H](NC(=O)[C@H](C)NC)C(C)(C)C)[C@H](C(=O)N[C@@H]2CCCc4ccccc42)C3)C[C@H]1C(=O)N[C@@H](Cc1ccccc1)C(=O)N(C)CCc1ccccn1)C(C)(C)C` [Example 54, (S)-2-((S)-3,3-Dimethyl-2-((S)-2-(methylamino)propanamido)butanoyl)-7-((3R,5S)-1-((S)-3,3-dimethyl-2-((S)-2-(methylamino)propanamido)butanoyl)-5-(((S)-1-(methyl(2-(pyridin-2-yl)ethyl)amino)-1-oxo-3-phenylpropan-2-yl)carbamoyl)pyrrolidin-3-yl)-N-((R)-1,2,3,4-tetrahydronaphthalen-1-yl)-1,2,3,4-tetrahydroisoquinoline-3-carboxamide], the IC50 is 2.9 nM on XIAP BIR2-3 (setting [1]) and 6.8 nM at XIAP BIR3 (setting [2]).

`CN[C@@H](C)C(=O)N[C@H](C(=O)N1C[C@@H](c2ccc3c(c2)CN(C(=O)[C@@H](NC(=O)[C@H](C)NC)C(C)(C)C)[C@H](C(=O)N[C@@H]2CCCc4ccccc42)C3)C[C@H]1C(=O)N[C@@H](Cc1ccccc1)C(=O)N(C)CCOC)C(C)(C)C` [Example 55, (S)-2-((S)-3,3-Dimethyl-2-((S)-2-(methylamino)propanamido)butanoyl)-7-((3R,5S)-1-((S)-3,3-dimethyl-2-((S)-2-(methylamino)propanamido)butanoyl)-5-(((S)-1-((2-methoxyethyl)(methyl)amino)-1-oxo-3-phenylpropan-2-yl)carbamoyl)pyrrolidin-3-yl)-N-((R)-1,2,3,4-tetrahydronaphthalen-1-yl)-1,2,3,4-tetrahydroisoquinoline-3-carboxamide]: the results for the concentration for half-maximal inhibition (IC50) at XIAP BIR2-3 (setting [1]) and at XIAP BIR3 (setting [2]) were 8.5 nM and 37.7 nM, respectively.
